Data from patent US20100004342A1, “LFA-1 Inhibitors and Use Thereof” (priority 2003, published 2010).
“Also recorded” adds a separate entry of the source. Read-outs that look alike come from different tables or passages of the source.

Key:
[1] = system: vascular endothelial cell; settings: cited from earlier work
LFA-1 and ICAM-1 = LFA-1 and ICAM-1 (Homo sapiens, UniProt P20701); settings: cited from earlier work
[2] = system: peripheral blood monocytes; test: Peripheral blood monocyte adhesion to culture plate (MTT); type: cell-based, human; settings: for number of the cells adhering on the plate surface: cultured with varying concentrations of polyamines for 70 to 80 hours; for inhibition effect on cell adhesion to the cell culture plate: culture for approximately 16 to 24 hours
Procedure: Peripheral blood monocytes were cultured on a 96-well cell culture plate using the culture medium described above. […] Following the culture, the cell culture plate was washed three times with PBS (−) solution to remove the cells floating in the culture medium. As a result, there remained only the cells adhering on the inside bottom of the cell culture plate. […] The culture supernatant was removed. As a result, there remained only the cells firmly adhering on the inside bottom of the cell culture plate, as described above. […] Thiazolyl blue (MTT) (C18H16N5SBr) (Sigma. St. Louis, USA) was added in the final concentration of 0.35 mg/mL, and the cells were cultured at 37° C. for 2 to 4 hours until the cells were stained. MTT is taken up into cells, and the dye is discolored only in live cells. Therefore, the amount of the live cells existing can be confirmed from the amount of the dye. This means that the larger the amount of the dye is, the higher the number of the cells and the cell activity are. After the cells were sufficiently stained with MTT, the culture supernatant was removed by aspiration. The cells were dissolved by addition of 100 μl of cell lysis solution (2-propanol (isopropanol; Wako Pure Chemical Industries LTD, Osaka, Japan) mixed with 12 M (mol/L) hydrochloric acid (HCl; Wako Pure Chemical Industries LTD, Osaka, Japan)), to recover the dye in the cells. Absorbance in the cell culture plate was measured at 2 absorbance wavelengths of 570 nm and 690 nm using an absorbance reader (Titertek Multiskan MCC/340, Labsystems, Flow Laboratories Inc., USA).

CD11a = test: Detection of cell membrane differentiation antigen CD11a of human peripheral blood monocyte (FACS); type: cell-based; settings: for number of the cell expressing CD11a on the cell surface / rate to the total cells of the cells with expression of CD11a or CD18: peripheral blood monocytes cultured with polyamine
Source text: (§1) Human peripheral blood was collected, and peripheral blood monocytes including lymphocyte, monocyte and the like were recovered from the collected blood by specific gravity centrifugation technique using SEPARATE-L (Muto Pure Chemicals Co. LTD., Tokyo, Japan). Next, the recovered peripheral blood monocytes were suspended in PRMI1640 culture medium (Sigma chemical co., St. Louis, USA) mixed with 10% human serum (Wako Pure Chemical Industries LTD., Osaka, Japan), 0.1% L-glutamine (Invitrogen Corp., CA, USA), and 0.01% penicillin-streptomycin (Invitrogen Corp., CA, USA) and cultured in the humidified air at 37° C. containing 5% carbonic acid gas. […] Following culture for a given time, the peripheral blood monocytes were recovered from the culture medium and used in Examples 2, 4, 5, and 6.
For confirming that obtained experimental results were not derived from changes produced by the polyamines present in the culture medium and kept in contact with the cells for a long time, different peripheral blood monocytes were prepared.
(§2) The peripheral blood monocytes cultured for 16 to 80 hours by the method of Example 1 were collected from the cell culture plate so as not to damage the cells. The collected cells were washed with PBS (−) solution and then fixed using phosphate buffered saline without calcium chloride and without magnesium chloride (hereinafter, referred to as PBS (−); Invitrogen Corporation, GIBCO, Grand Island, N.Y., USA) containing 2% paraformaldehyde (Wako Pure Chemical Industries LTD, Osaka, Japan), so as not to achieve change in cell membrane antigen molecules on the cell surface of the peripheral blood monocytes. The peripheral blood monocytes were further washed, to which antibodies to the cell membrane antigen molecules were then added in an amount corresponding to 5 μL (microliter) per 500000 cells. The antibodies used here are CD2 (FITC label), CD4 (FITC), CD8 (PE label), CD11a (FITC), CD11b (PE), CD11c (PE), CD18 (FITC), CD31 (PE), CD49d (PE), CD49e (PE), CD54 (PE), CD62L (PE), CD95 (FITC), and VIA-PROBE (FITC). All of these antibodies are manufactured by PharMingen (A Becton Dickinson Company, San Jose, Calif., USA).
(§3) After each antibody was added to the cells and reacted in the dark for 20 minutes, positive rate and light intensity of the cell membrane differentiation antigen expressed in the cultured peripheral blood were measured with FACS analyzer (FACSCalibur; manufactured by Becton Dickinson) (Becton Dickinson Japan, Tokyo). The population of the peripheral blood monocytes was of interest in the measurement of florescence of the cell surface, and the measurement of all of the cultured cells was also conducted at the same time. Further, a negative control was used, and a measurement gate was set to obtain each antibody positive rate of the cells within the gate and average fluorescence intensity of the positive cells.

[3] = system: vascular endothelial cells; test: Peripheral blood monocyte adhesion to vascular endothelial cell (BCECF-AM); type: cell-based, human; settings: for number of the cells adhering to the vascular endothelial cells: cultured with 100 or 500 μM polyamine for 72 to 80 hours, compared with culture without
[4] = system: peripheral blood monocytes; test: Blastogenesis of peripheral blood monocytes by Con-A or PHA (3H-thymidine); type: cell-based, human; settings: cultured with 100 μM polyamine for approximately 12 to 18 hours
Procedure: Following the culture, the cells were washed three times with PBS (−) to remove extracellular polyamines, The washed peripheral blood monocytes were cultured for 64 hours in culture medium (RPMI1640 containing 10% fetal bovine serum) mixed with PHA (Difco Laboratories, Detroit, Mich., USA) or Con-A (Sigma chemical co., St. Louis, USA). Then, ^3H-thymidine (Amersham) was added to the cells, followed by additional culture for 8 hours. Following the culture, the peripheral blood monocytes were recovered, and radioactivity of the cells was measured (liquid scintillation counter, LKB-1205, LKB). Since the peripheral blood monocytes activated by mitogen (PHA, Con-A, or the like) cause blast transformation, the cells take up ^3H-thymidine therein. Accordingly, function of cell activation can be measured by measuring the amount of intracellular ^3H-thymidine.

rats [5] = settings: cited from earlier work
rats [6] = settings: cited from earlier work; remark: listed apart in the source
[7] = system: peripheral blood monocytes; settings: for cellular cytotoxicity: peripheral blood monocytes, VIA-Probe
Source text: as §1, §2, §3

[8] = system: adhesion molecules (CD11b, CD11c, CD31, CD49d, CD49e, CD54, and CD62L); test: Detection of adhesion molecules except CD11a and CD18 on human peripheral blood monocyte (FACS); type: cell-based; settings: for average fluorescence intensity of adhesion molecules (CD11b, CD11c, CD31, CD49d, CD49e, CD54, and CD62L) except CD11a and CD18: peripheral blood monocytes cultured with polyamine
Source text: as §1, §2, §3

[9] = system: peripheral blood monocytes; test: Number and activity of the total cultured cells (MTT), cytotoxicity check; type: cell-based, human; settings: for cellular cytotoxicity to the peripheral blood monocytes: high concentrations (up to 1 mM); for amount of the MTT dye taken up into the cells (total cultured cells): total cells in the plate, varying polyamine concentration
Procedure: Then, the culture supernatant in the plate was removed with the utmost caution not to soak up the cells adhering on the inside bottom of the plate. This means that all the cells present in the cell culture plate exist on the inside bottom of the plate. […] Absorbance of the cell culture medium was measured at 2 absorbance wavelengths of 570 nm and 690 nm using an absorbance reader (Titertek Multiskan MCC/340, Labsystems, Flow Laboratories Inc., USA). As a result, each polyamine concentration and the total amount of live cells of the cultured peripheral blood monocytes can be confirmed.

CD18 = test: Detection of cell membrane differentiation antigen CD18 of human peripheral blood monocyte (FACS); type: cell-based; settings: peripheral blood monocytes cultured with polyamine
Source text: as §1, with “6. […]” for “6.”
(§4) After each antibody was added to the cells and reacted in the dark for 20 minutes, positive rate and light intensity of the cell membrane differentiation antigen expressed in the cultured peripheral blood were measured with FACS analyzer (FACSCalibur; manufactured by Becton Dickinson) (Becton Dickinson Japan, Tokyo). […] Further, a negative control was used, and a measurement gate was set to obtain each antibody positive rate of the cells within the gate and average fluorescence intensity of the positive cells.

[10] = system: Daudi cells (Burkitt lymphoma cells); settings: cultured overnight with 100 μM spermine, then IL-2 for 72 hours
[11] = system: CD16, CD31, CD49d, and CD54; settings: peripheral blood monocyte accidentally infected; cultured with spermine
Procedure: as §2, with “The antibodies used here are CD2 (FITC label), CD4 (FITC), CD8 (PE label), CD11a (FITC), CD11b (PE), CD11c (PE), CD18 (FITC), CD31 (PE), CD49d (PE), CD49e (PE), CD54 (PE), CD62L (PE), CD95 (FITC), and VIA-PROBE (FITC). All of these antibodies are manufactured by PharMingen (A Becton Dickinson Company, San Jose, Calif., USA).” left out
as §4

[12] = system: functional cell membrane differentiation antigen except adhesion molecules
Source text: as §1, §2, §3

intestinal mucosa = settings: contained in meal; cited from earlier work
psoriasis = settings: clinical examples, human; cited from earlier work
[13] = peripheral blood monocytes cultured with polyamine (0, 100, 500 μM) for 70 to 80 hours

Sequence of LFA-1 and ICAM-1 (P20701 26-1170): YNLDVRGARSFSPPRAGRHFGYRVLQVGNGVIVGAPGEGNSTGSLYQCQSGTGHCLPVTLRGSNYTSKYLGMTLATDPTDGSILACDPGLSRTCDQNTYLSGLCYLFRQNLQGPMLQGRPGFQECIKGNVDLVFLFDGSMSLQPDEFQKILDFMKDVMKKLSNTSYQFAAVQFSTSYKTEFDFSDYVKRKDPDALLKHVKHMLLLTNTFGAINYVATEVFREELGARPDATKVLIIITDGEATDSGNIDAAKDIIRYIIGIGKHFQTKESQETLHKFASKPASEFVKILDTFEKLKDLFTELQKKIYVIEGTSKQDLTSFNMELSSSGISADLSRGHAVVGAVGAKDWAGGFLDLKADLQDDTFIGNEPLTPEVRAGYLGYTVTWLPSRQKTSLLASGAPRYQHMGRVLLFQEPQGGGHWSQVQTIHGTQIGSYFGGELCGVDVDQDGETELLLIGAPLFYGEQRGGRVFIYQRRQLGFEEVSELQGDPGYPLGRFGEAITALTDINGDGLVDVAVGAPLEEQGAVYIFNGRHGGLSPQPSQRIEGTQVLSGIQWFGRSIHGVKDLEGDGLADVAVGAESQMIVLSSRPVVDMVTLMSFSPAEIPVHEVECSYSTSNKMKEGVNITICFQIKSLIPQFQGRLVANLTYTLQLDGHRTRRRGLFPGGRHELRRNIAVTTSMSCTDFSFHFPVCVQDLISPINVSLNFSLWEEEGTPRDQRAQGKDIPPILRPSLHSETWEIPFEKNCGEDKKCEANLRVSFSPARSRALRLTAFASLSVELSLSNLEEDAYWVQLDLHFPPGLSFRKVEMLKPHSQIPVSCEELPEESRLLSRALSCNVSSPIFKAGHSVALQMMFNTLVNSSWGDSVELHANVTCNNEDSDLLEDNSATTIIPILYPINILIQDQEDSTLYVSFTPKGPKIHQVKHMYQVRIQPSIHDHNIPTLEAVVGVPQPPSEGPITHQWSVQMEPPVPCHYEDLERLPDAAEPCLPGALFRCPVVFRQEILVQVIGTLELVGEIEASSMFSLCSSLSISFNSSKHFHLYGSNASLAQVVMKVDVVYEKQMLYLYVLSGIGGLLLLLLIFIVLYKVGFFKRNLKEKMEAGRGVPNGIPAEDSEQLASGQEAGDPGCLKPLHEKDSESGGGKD
Sequence of LFA-1 and ICAM-1 (P05107 23-769 partner): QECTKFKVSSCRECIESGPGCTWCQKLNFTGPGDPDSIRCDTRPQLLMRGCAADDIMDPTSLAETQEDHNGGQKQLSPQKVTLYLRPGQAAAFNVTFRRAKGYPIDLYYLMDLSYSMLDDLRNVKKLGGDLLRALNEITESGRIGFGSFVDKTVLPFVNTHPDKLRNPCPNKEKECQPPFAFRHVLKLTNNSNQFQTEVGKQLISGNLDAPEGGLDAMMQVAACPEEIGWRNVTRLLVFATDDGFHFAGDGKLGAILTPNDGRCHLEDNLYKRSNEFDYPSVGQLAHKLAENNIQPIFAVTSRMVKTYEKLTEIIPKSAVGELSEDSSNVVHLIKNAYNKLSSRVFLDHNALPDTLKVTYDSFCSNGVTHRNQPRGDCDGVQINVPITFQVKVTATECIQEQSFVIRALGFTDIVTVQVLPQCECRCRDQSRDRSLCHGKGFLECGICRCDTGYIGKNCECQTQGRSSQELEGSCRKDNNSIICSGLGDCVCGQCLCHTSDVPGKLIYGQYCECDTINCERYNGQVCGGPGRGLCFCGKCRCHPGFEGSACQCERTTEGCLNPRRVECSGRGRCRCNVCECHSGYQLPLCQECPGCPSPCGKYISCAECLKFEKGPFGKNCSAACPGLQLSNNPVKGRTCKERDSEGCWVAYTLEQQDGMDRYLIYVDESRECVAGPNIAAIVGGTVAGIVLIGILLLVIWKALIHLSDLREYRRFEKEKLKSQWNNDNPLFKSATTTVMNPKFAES

Molecule | number of the cells adhering on the plate surface [2] | average fluorescence intensity of CD11a (CD11a; [13]) | number of the cells adhering to the vascular endothelial cells [3] | blastogenesis by Con-A or PHA [4] | inhibition effect on cell adhesion to the cell culture plate [2] | number of the cell expressing CD11a on the cell surface (CD11a) | rate to the total cells of the cells with expression of CD11a or CD18 (CD11a) | cellular cytotoxicity [7] | average fluorescence intensity of adhesion molecules (CD11b, CD11c, CD31, CD49d, CD49e, CD54, and CD62L) except CD11a and CD18 [8] | cellular cytotoxicity to the peripheral blood monocytes [9] | amount of the MTT dye taken up into the cells (total cultured cells) [9] | average fluorescence intensity of CD18 (CD18) | other results
CC(C)c1c(C(=O)Nc2ccccc2)c(-c2ccccc2)c(-c2ccc(F)cc2)n1CC[C@@H](O)C[C@@H](O)CC(=O)O [atorvastatin] |  |  |  |  |  |  |  |  |  |  |  |  | monocyte adhesion to vascular endothelial cell [1]: inhibits monocyte adhesion to vascular endothelial cell
CC[C@H](C)C(=O)O[C@H]1C[C@@H](C)C=C2C=C[C@H](C)[C@H](CC[C@@H]3C[C@@H](O)CC(=O)O3)[C@H]21 [lovastatin] |  |  |  |  |  |  |  |  |  |  |  |  | adhesion between LFA-1 and ICAM-1 (LFA-1 and ICAM-1): blocks adhesion between LFA-1 and ICAM-1
Cl.Cl.NCCCCN [putrescine, 1,4-Butanediamine dihydrochloride, reference compound] | not inhibited | not evident | not inhibited |  |  |  |  |  |  |  |  |  | 
NCCCCNCCCN [spermidine, N-aminobutyl-1,3-diaminopropane] | decreased with increase of spermine and spermidine concentrations | inhibited dependently on spermidine concentration |  | rather enhanced | not exhibited | increased | not decreased | no cellular cytotoxicity | not decreased | no cellular cytotoxicity | no reduction | decreased | amount up to which no side effect is observed (rats [5]; subacute toxicity test, administration for 6 weeks): up to 83 mg/kg of body weight/day; 50% lethal dose (LD50) (rats [6]; rats, acute toxicity test): 600 mg/kg of body weight
NCCCNCCCCNCCCN [spermine, 4,9-diazadodecane-1,12-diamine] | decreased with increase of spermine and spermidine concentrations | reduced as spermine concentration was increased; also recorded: strongest | low | rather enhanced | not exhibited | increased | not decreased | no cellular cytotoxicity | not decreased | no cellular cytotoxicity | no change | decreased with increase of spermine concentration | amount up to which no side effect is observed (rats [5]; rat, in vivo): up to 19 mg/kg of body weight/day; inhibition of cell adhesion to the inside bottom of the culture plate ([2]; plate inverted and centrifuged (500 rpm, 5 minutes) after 70 to 82 hours culture): more remarkable result of the inhibition; cellular cytotoxicity (LAK activity) of the peripheral blood monocytes [10]: reduced; average fluorescence intensity of CD11a (decreasing effect) (CD11a; cells cultured for 20 to 26 hours): not observed; number of the cells having strong fluorescent intensity (CD11a histogram) (CD11a; cells supplemented with spermine): decreased; average fluorescence intensity of CD11a (CD11a; cultured with spermine 16 to 24 hours, washed, then cultured without spermine 48 to 56 hours): decrease of the average fluorescence intensity of CD11a; expression of cell membrane differentiation antigen such as CD16, 31, 49d, and 54 (average fluorescence intensity) [11]: markedly decreased; 50% lethal dose (LD50) (rats [6]; rat, in vivo): 600 mg/kg of body weight; dead cells (VIA-Probe) ([7]; spermine concentration that most strongly decreased CD11a and CD18 fluorescence): not increased; average fluorescence intensity of cell membrane differentiation antigens other than the adhesion molecules ([12]; FIG. 8, cells cultured with spermine): no decrease; expression rate of cell membrane differentiation antigen except adhesion molecules (expression positive rate) ([12]; cells cultured with spermine): not decreased; expression rate of adhesion molecules (expression positive rate) ([8]; cells cultured with spermine): not decreased; average fluorescence intensity of CD62L ([8]; peripheral blood monocytes cultured with spermine): obviously increased dependently on spermine concentration; concentration in meal at which it has toxicity (intestinal mucosa): ≥ 0.2%; number of the adhering cells (vascular endothelial cells) ([3]; culture with 500 μM spermine for 20 hours): not decreased
efalizumab: a CD11a antibody |  |  |  |  |  |  |  |  |  |  |  |  | psoriasis symptoms (psoriasis): improved
